Mortality data for 4 molecules are collected here from patent US10385012B2, “Thioamides and amides for controlling animal pests” (BASF SE, priority 2013, dated 2019).

Format in all cases: in vivo
Data set [1] has as its system Silverleaf whitefly (Bemisia argentifolii). Description: Silverleaf whitefly test on sprayed cotton plants. To be noted: 72 h, whitefly adults on cotton, 3 days after treatment, in comparison with untreated controls. The protocol:
The active compounds were formulated in cyclohexanone as a 10,000 ppm solution supplied in 1.3 ml ABgene® tubes. These tubes were inserted into an automated electrostatic sprayer equipped with an atomizing nozzle and they served as stock solutions for which lower dilutions were made in 50% acetone:50% water (v/v). A nonionic surfactant (Kinetic®) was included in the solution at a volume of 0.01% (v/v). Cotton plants at the cotyledon stage (one plant per pot) were sprayed by an automated electrostatic plant sprayer equipped with an atomizing spray nozzle. The plants were dried in the sprayer fume hood and then removed from the sprayer. Each pot was placed into a plastic cup and 10 to 12 whitefly adults (approximately 3-5 days old) were introduced. The insects were collected using an aspirator and 0.6 cm, nontoxic Tygon® tubing (R-3603) connected to a barrier pipette tip. The tip, containing the collected insects, was then gently inserted into the soil containing the treated plant, allowing insects to crawl out of the tip to reach the foliage for feeding. Cups were covered with a reusable screened lid (150-micron mesh polyester screen PeCap from Tetko, Inc.). […] Mortality was assessed 3 days after treatment, compared to untreated control plants.

Data set [2] deals with Green soldier stink bug (Nezara viridula). Description: Green soldier stink bug test on sprayed soybean pods. To be noted: 120 h, 3rd instar N. viridula on soybean pods, after 5 days, in comparison with untreated controls. The procedure:
The active compound is dissolved at the desired concentration in a mixture of 1:1 (vol:vol) distilled water:aceteone. Surfactant (Kinetic HV) is added at a rate of 0.01% (vol/vol). The test solution is prepared at the day of use. Soybean pods were placed in microwavable plastic cups lined with moist filter paper and inoculated with ten 3rd instar N. viridula. Using a hand atomizer, an approximately 2 ml solution is sprayed into each cup. Treated cups were kept at about 28-29° C. and relative humidity of about 50-60%. Percent mortality was recorded after 5 days.

In data set [3] the test system is boll weevil (Anthonomus grandis). Description: Boll weevil control, 24-well microtiter plates with insect diet and eggs. To be noted: 120 h, egg and larval mortality after 5 days, in comparison with untreated controls. The protocol:
For evaluating control of boll weevil (Anthonomus grandis) the test unit consisted of 24-well-microtiter plates containing an insect diet and 20-30 A. grandis eggs. The compounds were formulated using a solution containing 75% v/v water and 25% v/v DMSO. Different concentrations of formulated compounds were sprayed onto the insect diet at 20 μl, using a custom built micro atomizer, at two replications. After application, microtiter plates were incubated at about 23±1° C. and about 50±5% relative humidity for 5 days. Egg and larval mortality was then visually assessed.

Data set [4] relates to Southern armyworm (Spodoptera eridania). Description: Southern armyworm test on sprayed lima bean plants. The note with it: 500 ppm; armyworm larvae on lima bean, 4 days after treatment; in comparison with untreated controls. The procedure: The active compounds were formulated in cyclohexanone as a 10,000 ppm solution supplied in 1.3 ml ABgene® tubes. These tubes were inserted into an automated electrostatic sprayer equipped with an atomizing nozzle and they served as stock solutions for which lower dilutions were made in 50% acetone:50% water (v/v). A nonionic surfactant (Kinetic®) was included in the solution at a volume of 0.01% (v/v). Lima bean plants (variety Sieva) were grown 2 plants to a pot and selected for treatment at the 1st true leaf stage. Test solutions were sprayed onto the foliage by an automated electro-static plant sprayer equipped with an atomizing spray nozzle. The plants were dried in the sprayer fume hood and then removed from the sprayer. Each pot was placed into perforated plastic bags with a zip closure. Ten to 11 armyworm larvae were placed into the bag and the bags zipped closed. Test plants were maintained in a growth room at 25° C. and 20-40% relative humidity for 4 days, avoiding direct exposure to fluorescent light (24 hour photoperiod) to prevent trapping of heat inside the bags. Mortality and reduced feeding were assessed 4 days after treatment, compared to untreated control plants.

For data set [5], the system named is yellow fever mosquito (Aedes aegypti). Description: whole plant or invertebrate. The note with it: 48 h, larval mortality after 2 days, in comparison with untreated controls. The protocol: For evaluating control of yellow fever mosquito (Aedes aegypti) the test unit consisted of 96-well-microtiter plates containing 200 μl of tap water per well and 5-15 freshly hatched A. aegypti larvae. The compounds or mixtures were formulated using a solution containing 75% water and 25% DMSO. Different concentrations of formulated compounds or mixtures were sprayed onto the insect diet at 2.5 μl, using a custom built micro atomizer, at two replications. After application, microtiter plates were incubated at 28±1° C., 80±5% RH for 2 days. Larval mortality was then visually assessed.

Data set [6] has as its system Mediterranean fruitfly (Ceratitis capitata). Kind of data set: Mediterranean fruitfly control, microtiter plates with insect diet and eggs. To be noted: 120 h, egg and larval mortality after 5 days, in comparison with untreated controls. The protocol: For evaluating control of Mediterranean fruitfly (Ceratitis capitata) the test unit consisted of microtiter plates containing an insect diet and 50-80 C. capitata eggs. The compounds were formulated using a solution containing 75% v/v water and 25% v/v DMSO. Different concentrations of formulated compounds were sprayed onto the insect diet at 5 μl, using a custom built micro atomizer, at two replications. After application, microtiter plates were incubated at about 28±1° C. and about 80±5% relative humidity for 5 days. Egg and larval mortality was then visually assessed.

As to `C#Cc1ccc(CC(C#N)(C(N)=S)c2ccccc2)cc1` (centres unmarked) [II-1, 2-cyano-3-(4-ethynylphenyl)-2-phenylpropanethioamide], the mortality at 500 ppm in data set [1] and in data set [2] was ≥ 75% each time. For the same molecule, the mortality at 2500 ppm in data set [3] is ≥ 75%.

Take `N#CC(Cc1ccc(C(F)(F)F)cc1)(C(N)=O)c1ccc(F)cc1` (centres unmarked) [II-2]: in data set [4], the mortality entry is “at least 75%”.

For `C#Cc1ccc(CC(C#N)(C(=S)NC)c2ccc(F)cc2)cc1` (centres unmarked) [III-1, 2-cyano-3-(4-ethynylphenyl)-2-(4-fluorophenyl)-N-methyl-propanethioamide], the mortality at 2500 ppm in data set [3] and in data set [5] was ≥ 75% each time.

On to `C#Cc1ccc(CC(C#N)(C(=O)NC)c2ccc(F)cc2)cc1` (centres unmarked) [III-4, 2-cyano-3-(4-ethynylphenyl)-2-(4-fluorophenyl)-N-methyl-propanamide], for which the mortality at 2500 ppm in data set [6] and in data set [3] was ≥ 75% in each case.
